Experimental data taken from patent US7138361B2, “Herbicidal heterocycles” (E. I. du Pont de Nemours and Company, priority 2000, dated 2006).

Legend:
Format in all cases: in vivo
[1] = tested on: Surinam grass (Brachiaria decumbens); test: Test C postemergence
Text: (§1) Seeds of plant species selected from bermudagrass (Cynodon dactylon), Surinam grass (Brachiaria decumbens), cocklebur (Xanthium strumarium), corn (Zea mays), crabgrass (Digitaria sanguinalis), woolly cupgrass (Eriochloa villosa), giant foxtail (Setaria faberii), goosegrass (Eleusine indica), johnsongrass (Sorghum halepense), kochia (Kochia scoparia), lambsquarters (Chenopodium album), morningglory (Ipomoea hederacea), yellow nutsedge (Cyperus esculentus), pigweed (Amaranthus retroflexus), common ragweed (Ambrosia elatior), soybean (Glycine max) and velvetleaf (Abutilon theophrasti) were planted and treated preemergence with test chemicals formulated in a non-phytotoxic solvent mixture which included a surfactant.
(§2) At the same time, plants selected from these crop and weed species and also winter barley (Hordeum vulgare), blackgrass (Alopecurus myosuroides), canary grass (Phalaris minor), chickweed (Stellaria media), downy brome (Bromus tectorum), green foxtail (Setaria viridis), Italian ryegrass (Lolium multiflorum), wheat (Triticum aestivum), wild oat (Avena fatua) and windgrass (Apera spica-venti) were treated with postemergence applications of some of the test chemicals formulated in the same manner. Plants ranged in height from 2 to 18 cm (1- to 4-leaf stage) for postemergence treatments. Plant species in the flooded paddy test consisted of rice (Oryza saliva), smallflower flatsedge (Cyperus difformis), duck salad (Heteranthera limosa) and barnyardgrass (Echinochloa crus-galli) grown to the 2-leaf stage for testing. Treated plants and controls were maintained in a greenhouse for 12 to 14 days, after which time all species were compared to controls and visually evaluated. Plant response ratings, summarized in Table C, are based on a scale of 0 to 100 where 0 is no effect and 100 is complete control. A dash (-) response means no test result.

[2] = tested on: bermudagrass (Cynodon dactylon); test: Test C postemergence
Text: as §1, §2

[3] = tested on: cocklebur (Xanthium strumarium); test: Test C postemergence
Text: as §1, §2

[4] = tested on: corn (Zea mays); test: Test C postemergence
Text: as §1, §2

[5] = tested on: crabgrass (Digitaria sanguinalis); test: Test C postemergence
Text: as §1, §2

[6] = tested on: giant foxtail (Setaria faberii); test: Test C postemergence
Text: as §1, §2

[7] = tested on: goosegrass (Eleusine indica); test: Test C postemergence
Text: as §1, §2

[8] = tested on: johnsongrass (Sorghum halepense); test: Test C postemergence
Text: as §1, §2

[9] = tested on: kochia (Kochia scoparia); test: Test C postemergence
Text: as §1, §2

[10] = tested on: lambsquarters (Chenopodium album); test: Test C postemergence
Text: as §1, §2

[11] = tested on: pigweed (Amaranthus retroflexus); test: Test C postemergence
Text: as §1, §2

[12] = tested on: soybean (Glycine max); test: Test C postemergence
Text: as §1, §2

[13] = tested on: velvetleaf (Abutilon theophrasti); test: Test C postemergence
Text: as §1, §2

[14] = tested on: yellow nutsedge (Cyperus esculentus); test: Test C postemergence
Text: as §1, §2

[15] = tested on: common ragweed (Ambrosia elatior); test: Test C preemergence; details: for Plant response rating (0 to 100), Ragweed, Common: Rate 500 g/ha, visual evaluation after 12 to 14 days
Outline: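 Herbicidal effect is a visual 0–100 score (100 = complete control) assigned versus untreated plants, 12 to 14 days after spraying in the greenhouse. Test compounds were applied in a non-phytotoxic, surfactant-containing solvent.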

[16] = tested on: Sunflower; test: Test C preemergence; details: scale 0 to 100
[17] = Rate 125 g/ha, scale 0 to 100, 0 no effect, 100 complete control
[18] = Rate 250 g/ha, scale 0 to 100 (0 no effect, 100 complete control)
[19] = Rate 500 g/ha, scale 0 to 100 (0 no effect, 100 complete control)
[20] = preemergence, Rate 62 g/ha, scale 0 to 100
[21] = preemergence, Rate 250 g/ha, scale 0 to 100, 0 no effect, 100 complete control

CCCC(C)c1ccn(C2CCN(c3ccc(Cl)c(OC)c3)C2=O)n1 (stereo not drawn) [Compound 121]
Plant response rating, Surinam grass ([1]; Rate 62 g/ha, scale 0 to 100): 0 | Plant response rating, Surinam grass [1, 17]: 0 | Plant response rating, Surinam grass [1, 18]: 0 | Plant response rating, Surinam grass [1, 19]: 0 | Plant response rating, Bermudagrass ([2]; Rate 62 g/ha, scale 0 to 100): 0 | Plant response rating, Bermudagrass [2, 17]: 0 | Plant response rating, Bermudagrass [2, 18]: 0 | Plant response rating, Bermudagrass [2, 19]: 0 | Plant response rating, Cocklebur ([3]; Rate 62 g/ha, scale 0 to 100): 0 | Plant response rating, Cocklebur [3, 18]: 20 | Plant response rating, Cocklebur [3, 19]: 40 | Plant response rating, Corn ([4]; Rate 62 g/ha, scale 0 to 100): 0 | Plant response rating, Corn [4, 18]: 0 | Plant response rating, Corn [4, 19]: 40 | Plant response rating, Corn ([4]; scale 0 to 100): 0 | Plant response rating, Crabgrass ([5]; Rate 62 g/ha, scale 0 to 100): 0 | Plant response rating, Crabgrass [5, 18]: 40 | Plant response rating, Crabgrass [5, 19]: 60 | Plant response rating, Foxtail, Giant ([6]; Rate 62 g/ha, scale 0 to 100): 0 | Plant response rating, Foxtail, Giant [6, 18]: 20 | Plant response rating, Foxtail, Giant [6, 19]: 60 | Plant response rating, Goosegrass ([7]; Rate 62 g/ha, scale 0 to 100): 0 | Plant response rating, Goosegrass [7, 18]: 20 | Plant response rating, Goosegrass [7, 19]: 50 | Plant response rating, Johnsongrass ([8]; Rate 62 g/ha, scale 0 to 100): 0 | Plant response rating, Johnsongrass [8, 18]: 0 | Plant response rating, Johnsongrass [8, 19]: 0 | Plant response rating, Johnsongrass ([8]; rate not given, scale 0 to 100): 0 | Plant response rating, Kochia ([9]; Rate 62 g/ha, scale 0 to 100): 70 | Plant response rating, Kochia [9, 18]: 70 | Plant response rating, Kochia [9, 19]: 90 | Plant response rating, Lambsquarters ([10]; Rate 62 g/ha, scale 0 to 100): 90 | Plant response rating, Lambsquarters [10, 18]: 100 | Plant response rating, Lambsquarters [10, 19]: 100 | Plant response rating, Pigweed ([11]; Rate 62 g/ha, scale 0 to 100): 20 | Plant response rating, Pigweed [11, 18]: 70 | Plant response rating, Pigweed [11, 19]: 90 | Plant response rating, Soybean ([12]; Rate 62 g/ha, scale 0 to 100): 50 | Plant response rating, Soybean [12, 18]: 60 | Plant response rating, Soybean [12, 19]: 70 | Plant response rating, Velvetleaf ([13]; Rate 62 g/ha, scale 0 to 100): 0 | Plant response rating, Velvetleaf [13, 18]: 20 | Plant response rating, Velvetleaf [13, 19]: 40 | Plant response rating, Velvetleaf ([13]; scale 0 to 100): 0 | Plant response rating, Nutsedge ([14]; Rate 62 g/ha, scale 0 to 100): 0 | Plant response rating, Nutsedge [14, 18]: 0 | Plant response rating, Nutsedge [14, 19]: 0 | Plant response rating, Ragweed, Common [15, 17]: 90 | Plant response rating, Ragweed, Common [15, 20]: 0 | Plant response rating (0 to 100), Ragweed, Common ([15]; preemergence): 100 | Plant response rating, Ragweed, Common [15, 21]: 90 | Plant response rating, Sunflower ([16]; Rate 62 g/ha): 10

COc1cc(N2CCC(n3ccc(C(C)C)n3)C2=O)ccc1Cl (stereo not drawn) [Compound 120]
Plant response rating, Surinam grass ([1]; Rate 62 g/ha, scale 0 to 100): 0 | Plant response rating, Surinam grass [1, 17]: 0 | Plant response rating, Surinam grass [1, 18]: 0 | Plant response rating, Surinam grass [1, 19]: 0 | Plant response rating, Bermudagrass ([2]; Rate 62 g/ha, scale 0 to 100): 0 | Plant response rating, Bermudagrass [2, 17]: 0 | Plant response rating, Bermudagrass [2, 18]: 0 | Plant response rating, Bermudagrass [2, 19]: 70 | Plant response rating, Cocklebur ([3]; Rate 62 g/ha, scale 0 to 100): 0 | Plant response rating, Cocklebur [3, 18]: 80 | Plant response rating, Cocklebur [3, 19]: 90 | Plant response rating, Corn ([4]; Rate 62 g/ha, scale 0 to 100): 30 | Plant response rating, Corn [4, 18]: 30 | Plant response rating, Corn [4, 19]: 50 | Plant response rating, Corn ([4]; scale 0 to 100): 30 | Plant response rating, Crabgrass ([5]; Rate 62 g/ha, scale 0 to 100): 0 | Plant response rating, Crabgrass [5, 18]: 40 | Plant response rating, Crabgrass [5, 19]: 90 | Plant response rating, Foxtail, Giant ([6]; Rate 62 g/ha, scale 0 to 100): 0 | Plant response rating, Foxtail, Giant [6, 18]: 0 | Plant response rating, Foxtail, Giant [6, 19]: 70 | Plant response rating, Goosegrass ([7]; Rate 62 g/ha, scale 0 to 100): 0 | Plant response rating, Goosegrass [7, 18]: 0 | Plant response rating, Goosegrass [7, 19]: 60 | Plant response rating, Johnsongrass ([8]; Rate 62 g/ha, scale 0 to 100): 0 | Plant response rating, Johnsongrass [8, 18]: 0 | Plant response rating, Johnsongrass [8, 19]: 0 | Plant response rating, Johnsongrass ([8]; rate not given, scale 0 to 100): 0 | Plant response rating, Kochia ([9]; Rate 62 g/ha, scale 0 to 100): 50 | Plant response rating, Kochia [9, 18]: 90 | Plant response rating, Kochia [9, 19]: 90 | Plant response rating, Lambsquarters ([10]; Rate 62 g/ha, scale 0 to 100): 50 | Plant response rating, Lambsquarters [10, 18]: 90 | Plant response rating, Lambsquarters [10, 19]: 100 | Plant response rating, Pigweed ([11]; Rate 62 g/ha, scale 0 to 100): 0 | Plant response rating, Pigweed [11, 18]: 60 | Plant response rating, Pigweed [11, 19]: 90 | Plant response rating, Soybean ([12]; Rate 62 g/ha, scale 0 to 100): 30 | Plant response rating, Soybean [12, 18]: 60 | Plant response rating, Soybean [12, 19]: 60 | Plant response rating, Velvetleaf ([13]; Rate 62 g/ha, scale 0 to 100): 0 | Plant response rating, Velvetleaf [13, 18]: 0 | Plant response rating, Velvetleaf [13, 19]: 0 | Plant response rating, Velvetleaf ([13]; scale 0 to 100): 0 | Plant response rating, Nutsedge ([14]; Rate 62 g/ha, scale 0 to 100): 0 | Plant response rating, Nutsedge [14, 18]: 0 | Plant response rating, Nutsedge [14, 19]: 50 | Plant response rating, Ragweed, Common [15, 17]: 100 | Plant response rating, Ragweed, Common [15, 20]: 100 | Plant response rating (0 to 100), Ragweed, Common ([15]; preemergence): 100 | Plant response rating, Ragweed, Common [15, 21]: 100 | Plant response rating, Sunflower ([16]; Rate 62 g/ha): 60

CSc1cccc(N2CCC(n3ccc(C(C)(C)C)n3)C2=O)c1 (stereo not drawn) [Compound 86]
Plant response rating, Ragweed, Common [15, 17]: 0 | Plant response rating, Ragweed, Common [15, 20]: 0 | Plant response rating (0 to 100), Ragweed, Common ([15]; preemergence): 0 | Plant response rating, Ragweed, Common [15, 21]: 0 | Plant response rating, Sunflower ([16]; Rate 62 g/ha): 0

CC(C)Oc1cccc(N2CCC(n3ccc(C(C)(C)C)n3)C2=O)c1 (stereo not drawn) [Compound 70]
Plant response rating, Ragweed, Common ([15]; preemergence, Rate 31 g/ha, scale 0 to 100): 0 | Plant response rating (0 to 100), Ragweed, Common ([15]; preemergence): 100 | Plant response rating, Ragweed, Common ([15]; preemergence, Rate 125 g/ha, scale 0 to 100, 0 no effect, 100 complete control): 60 | Plant response rating, Ragweed, Common [15, 21]: 80 | Plant response rating, Sunflower ([16]; Rate 31 g/ha): 0
